Here are results for 16 compounds from patent publication US6780853B1, “Neuroactive steroids of the androstane and pregnane series” (priority 1995, dated 2004).

Where a name gives a salt, the structure may show the parent alone.

Data set [1] concerns the target GABA receptor complex (GRC). Briefly: [35S]TBPS binding in rat cerebral cortex P2 homogenate. The conditions noted are these: for IC50: concentration to inhibit 50% of control [35S]TBPS binding, 2 nM [35S]TBPS; for IMAX (maximum inhibition): maximum inhibition of [35S]TBPS binding. An excerpt: To those skilled in the art, it is known that the modulation of [^35S]t-butylbicyclophosphorothionate ([^35S]TBPS) binding is a measure of the potency and efficacy of drugs acting at the GRC, which drugs may be of potential therapeutic value in the treatment of stress, anxiety, and seizure disorders (Squires, R. F., et al., Mol, Pharmacol., 23:326 (1983); Lawrence, L. J., et al., Biochem. Biophys. Res. Comm., 123:1130-1137 (1984); Wood, et al., Pharmacol, Exp. Ther., 231:572-576 (1984)). Several experiments were performed previously to determine the nature of the modulation of [^35S]TBPS as affected by neuroactive steroids. […] Furthermore, these compounds have high potency and efficacy at the GRC, with stringent structural requirements for such activity.
The procedures for performing this assay are fully discussed in: (1) Gee, K. W. et al., European Journal of Pharmacology, 136:419-423 (1987)); and (2) Gee, et al., Molecular Pharmacology 30:218 (1986). These procedures were performed as follows:
Brains from male Sprague-Dawley rats were removed immediately following sacrifice and the cerebral cortices dissected over ice. A P2 homogenate was prepared as previously described (Gee, et al., Molecular Pharmacology 30:218 (1986)). Briefly, the cortices were gently homogenized in 032 M sucrose followed by centrifugation at 1000×g for 10 minutes. The supernatant was collected and centrifuged at 9000×g for 20 minutes. The resultant P2 pellet was suspended as a 10% (original wet weight/volume) suspension in 50 mM Na/K phosphate buffer (pH 7.4) 200 mM NaCl to form the homogenate.
One hundred microliter […] aliquots of the P2 homogenate (0.5 milligrams (mg) protein) were incubated with 2 nanomolar (nM) [^35S]TBPS (70-110 curies/millimole; New England Nuclear, Boston, Mass.) in the presence or absence of the naturally occurring steroids or their synthetic derivatives to be tested. The tested compounds were dissolved in dimethylsulfoxide (Baker Chem. Co., Phillipsburg, N.J.) and added to the incubation mixture in 5 μL aliquots. The incubation mixture was brought to a final volume of 1 mL with buffer. Non-specific binding was defined as binding in the presence of […]. The effect and specificity of GABA (Sigma Chem. Co., St. Louis, Mo.) was evaluated by performing all assays in the presence of GABA plus (+)bicuculline (Sigma Chem. Co.). Incubations maintained at 25° C. for 90 minutes (steady state conditions) were terminated by rapid filtration through glass fiber filters (No. 32, Schleicher and Schuell, Keene, N.H.). Filter-bound radioactivity was quantitated by liquid scintillation spectrophotometry. Kinetic data and compound/[^35S]TBPS dose-response curves were analyzed by nonlinear regression using a computerized iterative procedure to obtain rate constants and IC50 (concentration of compound at which half-maximal inhibition of basal [^35S]TBPS binding occurs) values.
Various compounds were screened to determine their potential as modulators of [^35S]TBPS binding in vitro. These assays were performed in accordance with the above discussed procedures. Based on these assays, we have established the structure-activity requirements for their specific interaction at the GRC and their rank order potency and efficacy. Experimental data obtained in this assay for a number of 3α-hydroxypregnan-20-one derivatives is discussed in Gee, K. W. et al., European Journal of Pharmacology, 136:419-423 (1987) and in U.S. Pat. No. 5,232,917. Table 1 provides IC50 and maximum inhibition (IMAX) measurements for numerous compounds, including examples of compounds disclosed and claimed herein. IC50 is defined as concentration of compounds to inhibit 50% of control [^35S]TBPS binding. It is an indication of a compound's in vitro potency. Maximum inhibition is an indication of a compound's in vitro efficacy.

For data set [2], the system named is metrazol induced convulsions. Briefly: Antimetrazol activity in mice. It counts as in vivo. The settings on record: IP. The protocol:
Experiments were also performed to determine the physiological relevance of neuroactive steroid and GABA receptor interactions by assessing the ability of compounds of the present invention to prevent metrazol induced convulsions in mice. Mice were injected with various doses of the test compounds of the invention, 10 minutes prior to the injection of metrazol. The time to onset of myoclonus (presence of forelimb clonic activity) induced by metrazol was determined by observing each mouse for a period of 30 minutes. In control mice, metrazol (85 mg/kg) will induce convulsion in 95% of the animals.
The anticonvulsant tests are similar to that described above.

Data set [3] has as its system time spent on the open-arms. The experiment in a line: Elevated plus-maze test. It counts as in vivo, N.I.H. Swiss-Webster mice. An excerpt:
The theoretical basis for the elevated plus-maze test is similar to that of the fight/dark transition test. As it was described previously by Pellow et al. J. Neurosci. Meth. 14:149-167 (1985)), the elevated plus-maze apparatus is designed to utilize the mice's natural aversion to open spaces. The apparatus consists of two open-arms and two enclosed-arms. The elevated plus-maze test allows for two measures of anxiety, the number of entries into the open-arms and the time spent on the open-arms, both expressed as a percentage of the total number of entries and time spent in/on both the open-arms and enclosed-arms.
Male N.I.H Swiss-Webster mice (Harlan, Indianapolis, Ind.) weighing 15-20 g were housed four per cage in polyethylene cages with sawdust bedding. The colony room was environmentally controlled (22° C.) with a 12 hr light/dark cycle (0600-1800 hr). Food and water were available ad libitum, except during testing. The experiments were run from 0700-1500 hr and groups were counterbalanced for time of day effects. Mice were only administered drug or vehicle once.
The method used was previously described (Lister, Psychopharmacol. 92:180-185 (1987)). The apparatus included two open arms perpendicular to two enclosed arms elevated 50 cm from the floor. Each arm was 50 cm long and the walls of the enclosed arms were 40 cm tall. The maze was made completely of black plexiglass. Incandescent 200 W light bulbs were above each of the open arms to produce a strong contrast between the open arms and the enclosed arms.
[…] Swiss-Webster mice were placed in the center of the plus-maze facing an open arm. During the 5 min test period, the number of entries onto the open arms and the enclosed arms, and the time spent in the open arms and enclosed arms were measured. All four paws had to be within an arm for the dependent variable to be measured. Therefore, the time spent in the center of the maze is not counted, so the total time spent in the open arms and the enclosed arms may not equal 5 min.

[4] abbreviates: 50% hpbcd, 10 mg/kg, 10 min before metrazol 85 mg/kg.

On to `C[C@]12CC[C@@H](O)C[C@H]1CC[C@@H]1[C@@H]2CC[C@]2(C)[C@@H](C(=O)CSc3ccncc3)CC[C@@H]12` [3α-hydroxy-21-(pyrid-4-ylthio)-5β-pregnan-20-one], for which, in data set [1], the IC50 (commonly the concentration needed to halve the response being measured) was found to be 59 nM and the “IMAX (maximum inhibition)” value worked out at 74%. In addition, in data set [2] (setting [4]), the “% Protected” value came out at 75%. Also, the “Plus-Maze (% Control), time spent on the open-arms” value (from here on “Plus-Maze (% Control), time spent”) in data set [3] (IP, 50% hpbcd, 10 mg/kg) was found to be 151 % Control.
For the compound `COC1CCC2C3CCC4CC(O)(C#CCCO)CCC4(C)C3CCC12C` (stereo not drawn) [3β-(4′-Hydroxybutyn-1′-yl)-3α-hydroxy-17β-methoxy-5α-androst] [3β-(4′-Hydroxy-1-′-butynyl)-3α-hydroxy-17β-methoxy-5α-androstane], in data set [1], the concentration for half-maximal inhibition (IC50) was 47 nM and the “IMAX (maximum inhibition)” value is 104%. In addition, in data set [3] (IP, 50% hpbcd, 10 mg/kg), the “Plus-Maze (% Control), time spent” value is reported as 158 % Control.
Take `CC(=O)c1ccc(C#CCO[C@H]2CC[C@H]3[C@@H]4CC[C@H]5C[C@](C)(O)CC[C@]5(C)[C@H]4CC[C@]23C)cc1` [17β-[3-(4-Acetylphenyl)-2-propynyloxy]-3α-hydroxy-3β-methyl-5α-androstane]: the melting point (in general, the temperature of the solid-liquid transition) was in the range of 52 to 55 °C. Moreover, in data set [1], the IC50 was 316 nM and the “IMAX (maximum inhibition)” value is reported as 95%.
`C[C@]12CC[C@@H](O)C[C@H]1CC[C@@H]1[C@@H]2CC[C@]2(C)[C@@H](C(=O)CSCCO)CC[C@@H]12` [3α-hydroxy-21-hydroxyethylthio-5β-pregnan-20-one] gave a melting point of 150 to 152 °C. For the same compound, in data set [1], the IC50 was 141 nM and the “IMAX (maximum inhibition)” value worked out at 71%. Further, the “% Protected” value in data set [2] (setting [4]) came to 12.5%.
Turning to `C=C[C@@]1(O)CC[C@@]2(C)[C@@H](CC[C@@H]3[C@@H]2CC[C@]2(C)[C@@H](OC)CC[C@@H]32)C1` [3β-Ethenyl-3α-hydroxy-17β-methoxy-5α-androstane], in data set [1], the IC50 was 133 nM and the “IMAX (maximum inhibition)” value is reported as 104%. Further, the “Plus-Maze (% Control), time spent” value in data set [3] (IP, 50% hpbcd, 10 mg/kg) is on record as 127 % Control.
`C[C@]12CC[C@@H](O)C[C@H]1CC[C@@H]1[C@@H]2CC[C@]2(C)[C@@H](C(=O)COc3cccnc3)CC[C@@H]12` [3α-hydroxy-21-(pyrid-3-yl)oxy-5β-pregnan-20-one]: the melting point fell in the range of 63 to 66 °C. Further, in data set [1], the 50% inhibitory concentration (IC50) stood at 76 nM and the “IMAX (maximum inhibition)” value worked out at 76%.
Take `C#CC1(O)CCC2(C)C(CCC3C2CCC2(C)C(C(=O)CSCCS(=O)(=O)O)CCC32)C1` (stereo not drawn) [3β-ethynyl-3α-hydroxy-21-thioethanesulfonate-5β-pregnan-20-one sodium salt]: in data set [1], the IC50 stood at 607 nM and the “IMAX (maximum inhibition)” value was determined as 93%. The “% Protected” value in data set [2] (setting [4]) is on record as 0%. Besides, in data set [3] (IP, 50% hpbcd, 10 mg/kg), the “Plus-Maze (% Control), time spent” value is given as 127 % Control.
In turn, `CO[C@H]1CC[C@H]2[C@@H]3CC[C@@H]4C[C@H](OC(=O)C(C)C)CC[C@]4(C)[C@H]3CC[C@]12C` showed a melting point of 82 to 87 °C.
As for `COC1CCC2C3CCC4CC(O)(C#CCCOC(=O)CCC(=O)O)CCC4(C)C3CCC12C` (stereo not drawn) [3β-(4′-hydroxy-1′-butynyl)-3α-hydroxy-17β-methoxy-5β-androstane 4′-hemisuccinate sodium salt], in data set [1], the IC50 amounted to 108 nM and the “IMAX (maximum inhibition)” value was determined as 100%. Further, the “% Protected” value in data set [2] (water, 10 mg/kg) is reported as 75%. For the same compound, the “Plus-Maze (% Control), time spent” value in data set [3] (PO, water, 10 mg/kg) turned out to be 309 % Control.
For `C[C@]12CC[C@@H](O)C[C@H]1CC[C@@H]1[C@@H]2CC[C@]2(C)[C@@H](C(=O)C[S+]([O-])c3ccncc3)CC[C@@H]12` (stereo partly drawn) [3α-Hydroxy-21-(pyrid-4-ylsulfinyl)-5β-pregnan-20-one], in data set [1], the IC50 turned out to be 235 nM and the “IMAX (maximum inhibition)” value came out at 73%. For the same compound, in data set [2] (setting [4]), the “% Protected” value was determined as 25%. Also, the “Plus-Maze (% Control), time spent” value in data set [3] (IP, 50% hpbcd, 10 mg/kg) is listed as 171 % Control.
Compound `C[C@@]1(O)CC[C@@]2(C)[C@@H](CC[C@@H]3[C@@H]2CC[C@]2(C)[C@@H](C(=O)COc4ccc([N+](=O)[O-])cc4)CC[C@@H]32)C1` showed a melting point of 169 to 172 °C.
Take `C#C[C@@]1(O)CC[C@@]2(C)[C@@H](CC[C@@H]3[C@@H]2CC[C@]2(C)[C@@H](OC)CC[C@@H]32)C1` [3β-Ethynyl-3α-hydroxy-17β-methoxy-5α-androstane]: in data set [1], the IC50 is 122 nM and the “IMAX (maximum inhibition)” value worked out at 106%. Further, in data set [3] (IP, 50% hpbcd, 10 mg/kg), the “Plus-Maze (% Control), time spent” value worked out at 129 % Control.
Compound `COCC1(O)CCC2(C)C(CCC3C2CCC2(C)C(C(=O)CSc4ccc(N)cc4)CCC32)C1` (stereo not drawn) [21-(4′-aminophenylthio)-3α-hydroxy-3β-methoxymethyl-5α-pregnan-20-one] showed a melting point of 150 to 156 °C. In data set [1], the IC50 is 127 nM and the “IMAX (maximum inhibition)” value amounted to 89%.
The matching figures for `C[C@]12CC[C@@H](O)C[C@@H]1CC[C@@H]1[C@@H]2CC[C@]2(C)[C@@H](OCCO)CC[C@@H]12` [17β-(2-Hydroxyethoxy)-3α-hydroxy-5α-androstane]: 181 to 183 °C, 534 nM and 99%.
As to `CC12CCC(O)CC1CCC1C2CCC2(C)C(C(=O)CSc3ncc[nH]3)CCC12` (stereo not drawn) [3α-Hydroxy-21-(imidazo-2-ylthio)-5β-pregnan-20-one], in data set [1], the 50% inhibitory concentration (IC50) was determined as 184 nM and the “IMAX (maximum inhibition)” value turned out to be 80%. Also, in data set [2] (setting [4]), the “% Protected” value stood at 6.25%. Moreover, the “Plus-Maze (% Control), time spent” value in data set [3] (IP, 50% hpbcd, 10 mg/kg) is recorded as 166 % Control.
As to `C[C@]12CC[C@@H](O)C[C@H]1CC[C@@H]1[C@@H]2CC[C@]2(C)[C@@H](C(=O)CSc3ccccn3)CC[C@@H]12` [3α-Hydroxy-21-(pyrid-2-ylthio)-5β-pregnan-20-one], in data set [1], the IC50 was found to be 90 nM and the “IMAX (maximum inhibition)” value came to 66%. Also, the “% Protected” value in data set [2] (50% hpbcd, 20 mg/kg) stood at 12.5%. In addition, the “Plus-Maze (% Control), time spent” value in data set [3] (IP, 50% hpbcd, 20 mg/kg) turned out to be 187 % Control.
